These results are taken from patent US12398097B2, “WDR5-MYC inhibitors” (Vanderbilt University, priority 2019, dated 2025).

pKi: −log10 of the molar value.

In the assay the target is WDR5 (Homo sapiens, UniProt P61964). As to the kind of experiment: Competition-based fluorescence polarization anisotropy assay. Conditions: binding to WDR5; displacement of FITC-labeled small molecule probe (analogous to Example J2 or HCH-25) or peptide probe FITC-AHx-SEEEIDVVSV; pH 6.0; Ki converted from IC50. In a few lines:
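Competition fluorescence polarization anisotropy binding to WDR5 using a FITC-labeled peptide probe or a fluorescently labeled small-molecule probe. Buffer: 200 mM phosphate, 300 mM NaCl, 0.5 mM TCEP, 0.1% Chaps, pH 6.0. Displacement data were converted to Ki.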
In the case of `O=C1NCCN1c1cc(Cl)cc(NS(=O)(=O)c2cc(Br)cc(Cl)c2O)c1` [NE14, 5-Bromo-3-chloro-N-(3-chloro-5-(2-oxoimidazolidin-1-yl)phenyl)-2-hydroxybenzenesulfonamide], the pKi (in general, the negative decadic logarithm of the Ki, by convention in mol/L) is 6.43.
In turn, `N#CC1(c2cc(NS(=O)(=O)c3cc(Br)ccc3O)c(O)c(C(=O)O)c2)CCCCC1` [Example J231, 3-((5-Bromo-2-hydroxyphenyl)sulfonamido)-5-(1-cyanocyclohexyl)-2-hydroxybenzoic acid] showed a pKi of 7.70.
Molecule `O=C(O)c1cc(Cl)cc(NS(=O)(=O)c2cc(Br)ccc2O)c1O` [Example J1, 3-((5-Bromo-2-hydroxyphenyl)sulfonamido)-5-chloro-2-hydroxybenzoic acid] showed a pKi of 7.05.
As for `COC[C@@H]1CCCN1C(=O)c1cc(OC(F)(F)F)cc(NS(=O)(=O)c2cc(Br)ccc2OC)c1O` [Example J180, (S)-5-Bromo-N-(2-hydroxy-3-(2-(methoxymethyl)pyrrolidine-1-carbonyl)-5-(trifluoromethoxy)phenyl)-2-methoxybenzenesulfonamide], the figure is 5.40; as for `CCN(CC)CCS(=O)(=O)c1cc(Cl)cc(NS(=O)(=O)c2cc(Br)ccc2O)c1` [Example S40, 5-Bromo-N-(3-chloro-5-((2-(diethylamino)ethyl)sulfonyl)phenyl)-2-hydroxybenzenesulfonamide], 5.36; as for `CNC(=O)c1cc(C2CC2)cc(NS(=O)(=O)c2cc(Br)cc(Cl)c2O)c1O` [Example J95, 3-((5-Bromo-3-chloro-2-hydroxyphenyl)sulfonamido)-5-cyclopropyl-2-hydroxy-N-methylbenzamide], 6.41.
As for `CS(=O)(=O)c1cc(C(F)(F)F)cc(NS(=O)(=O)c2cc(Br)ccc2O)c1O` [Example S25, 5-Bromo-3-2-hydroxy-N-(2-hydroxy-3-(methylsulfonyl)-5-(trifluoromethyl)phenyl)benzenesulfonamide], the figure is 7.05.
As for `CNC(=O)C(CO)NC(=O)c1cc(OC(F)(F)F)cc(NS(=O)(=O)c2cc(Br)ccc2O)c1O` (stereo not shown) [HCH-46, 3-((5-Bromo-2-hydroxyphenyl)sulfonamido)-2-hydroxy-N-(3-hydroxy-1-(methylamino)-1-oxopropan-2-yl)-5-(trifluoromethoxy)benzamide], the figure is 6.35; as for `CNC(=O)c1cc(NS(=O)(=O)c2cc(Br)ccc2O)cc(C2CC2)c1F` [Example J135, 5-((5-Bromo-2-hydroxyphenyl)sulfonamido)-3-cyclopropyl-2-fluoro-N-methylbenzamide], 6.16.
Take `CCc1cc(O)c(S(=O)(=O)Nc2cc(Cl)cc(C(=O)O)c2O)cc1Cl` [Example J12, 5-Chloro-3-((5-chloro-4-ethyl-2-hydroxyphenyl)sulfonamido)-2-hydroxybenzoic acid]: the pKi is 4.95.
The figure for `CC(C)S(=O)(=O)c1cc(Cl)cc(NS(=O)(=O)c2cc(Br)cc(Cl)c2O)c1O` [Example S23.1, 5-Bromo-3-chloro-N-(5-chloro-2-hydroxy-3-(isopropylsulfonyl)phenyl)-2-hydroxybenzenesulfonamide] is 6.89.
The figure for `CNC(=O)c1cc(Cl)cc(NS(=O)(=O)c2cc(Br)cc(Cl)c2O)c1` [Example S69, 3-((5-Bromo-3-chloro-2-hydroxyphenyl)sulfonamido)-5-chloro-N-methylbenzamide] is 6.11.
Regarding `CC(C)[S+]([O-])c1cc(Cl)cc(NS(=O)(=O)c2cc(Br)cc(Cl)c2O)c1O` (stereo not shown) [Example S23.2, 5-Bromo-3-chloro-N-(5-chloro-2-hydroxy-3-(isopropylsulfinyl)phenyl)-2-hydroxybenzenesulfonamide], the pKi is 6.48.
The figure for `COC[C@@H]1CCCN1C(=O)c1cc(OC(F)(F)F)cc(NS(=O)(=O)c2cc(Cl)ccc2O)c1O` [Example J176, (S)-5-Chloro-2-hydroxy-N-(2-hydroxy-3-(2-(methoxymethyl)pyrrolidine-1-carbonyl)-5-(trifluoromethoxy)phenyl)benzenesulfonamide] is 5.15; for `O=C(NC1COC1)c1cc(OC(F)(F)F)cc(NS(=O)(=O)c2cc(Br)ccc2O)c1O` [HCH-9, 3-((5-Bromo-2-hydroxyphenyl)sulfonamido)-2-hydroxy-N-(oxetan-3-yl)-5-(trifluoromethoxy)benzamide] it is 6.42; for `Cc1sccc1-c1cc(NS(=O)(=O)c2cc(Br)ccc2O)c(O)c(C(=O)O)c1` [Example J198, 3-((5-Bromo-2-hydroxyphenyl)sulfonamido)-2-hydroxy-5-(2-methylthiophen-3-yl)benzoic acid] it is 5.96.
In turn, `COCCNC(=O)c1c(O)c(NS(=O)(=O)c2cc(Br)cc(Cl)c2O)cc(C2CC2)c1F` [Example J147, 3-((5-Bromo-3-chloro-2-hydroxyphenyl)sulfonamido)-5-cyclopropyl-6-fluoro-2-hydroxy-N-(2-methoxyethyl)benzamide] had a pKi of 6.64. This pKi is 0.68 log units higher than that of the molecule before.
`NC(=O)[C@H](CO)NC(=O)c1cc(OC(F)(F)F)cc(NS(=O)(=O)c2cc(Br)ccc2O)c1O` [HCH-47, (S)—N-(1-Amino-3-hydroxy-1-oxopropan-2-yl)-3-((5-bromo-2-hydroxyphenyl)sulfonamido)-2-hydroxy-5-(trifluoromethoxy)benzamide] gave a pKi of 6.59.
The figure for `O=C(O)c1cc(OC(F)(F)F)cc(NS(=O)(=O)c2cc(Br)cc3cccnc23)c1O` [Example J161, 3-((6-Bromoquinoline)-8-sulfonamido)-2-hydroxy-5-(trifluoromethoxy)benzoic acid] is 6.46; for `O=C(c1cc(OC(F)(F)F)cc(NS(=O)(=O)c2cc(Br)ccc2O)c1O)N1CC[C@@H](O)C1` [Example J173, (R)-5-Bromo-2-hydroxy-N-(2-hydroxy-3-(3-hydroxypyrrolidine-1-carbonyl)-5-(trifluoromethoxy)phenyl)benzenesulfonamide] it is 5.81.
Take `COCCNC(=O)c1cc(NS(=O)(=O)c2cc(Br)cc(Cl)c2O)cc(C2CC2)c1F` [Example J152, 5-((5-Bromo-3-chloro-2-hydroxyphenyl)sulfonamido)-3-cyclopropyl-2-fluoro-N-(2-methoxyethyl)benzamide]: the pKi is 6.49. This pKi is 0.68 log units higher than that of the molecule before.
With `COc1ccc(Br)cc1S(=O)(=O)Nc1cc(Cl)cc(C(=O)NCCN)c1O` [Example J61, N-(2-Aminoethyl)-3-((5-bromo-2-methoxyphenyl)sulfonamido)-5-chloro-2-hydroxybenzamide], the pKi was 5.57.
The figure for `CNC(=O)c1cc(C(C)(C)C)cc(NS(=O)(=O)c2cc(Br)ccc2O)c1O` [Example J202, 3-((5-Bromo-2-hydroxyphenyl)sulfonamido)-5-(tert-butyl)-2-hydroxy-N-methylbenzamide] is 5.97; for `O=C(NCc1cc[nH]c(=O)c1)c1cc(Cl)cc(NS(=O)(=O)c2cc(Br)ccc2O)c1O` [Example J36, 3-((5-Bromo-2-hydroxyphenyl)sulfonamido)-5-chloro-2-hydroxy-N-((2-oxo-1,2-dihydropyridin-4-yl)methyl)benzamide] it is 6.62.
Consider `O=S(=O)(Nc1cc(Cl)ccc1O)c1cc(Br)ccc1O` [HCH-1-143-2, 5-Bromo-N-(5-chloro-2-hydroxyphenyl)-2-hydroxybenzenesulfonamide], for which the pKi is 5.90.
For `COc1ccc(Br)cc1S(=O)(=O)Nc1cc(Cl)cc([N+](=O)[O-])c1O` [NE1, 5-Bromo-N-(5-chloro-2-hydroxy-3-nitrophenyl)-2-methoxybenzenesulfonamide], the pKi was 5.75.
Regarding `O=C(O)c1cc(-c2ccsc2)cc(NS(=O)(=O)c2cc(Br)ccc2O)c1O` [Example J195, 3-((5-Bromo-2-hydroxyphenyl)sulfonamido)-2-hydroxy-5-(thiophen-3-yl)benzoic acid], the pKi is 6.03.
For `COC[C@H]1CCCN1C(=O)c1cc(OC(F)(F)F)cc(NS(=O)(=O)c2cc(Cl)ccc2O)c1O` [Example J177, (R)-5-Chloro-2-hydroxy-N-(2-hydroxy-3-(2-(methoxymethyl)pyrrolidine-1-carbonyl)-5-(trifluoromethoxy)phenyl)benzenesulfonamide], the pKi was 5.31.
`CS(=O)(=O)c1cc(C2(C#N)CCC2)cc(NS(=O)(=O)c2cc(Br)cc(Cl)c2O)c1O` [Example S60, 5-Bromo-3-chloro-N-(5-(1-cyanocyclobutyl)-2-hydroxy-3-(methylsulfonyl)phenyl)-2-hydroxybenzenesulfonamide] had a negative-log Ki (pKi) of 7.30. Against the preceding molecule, the pKi is 1.99 log units higher.
The molecule `O=S(=O)(Nc1cc(OC(F)(F)F)ccc1O)c1cc(Br)ccc1O` [HCH-3-48-1, 5-Bromo-2-hydroxy-N-(2-hydroxy-5-(trifluoromethoxy)phenyl)benzenesulfonamide] had a pKi of 6.26. This pKi is 1.04 log units lower than that of the molecule before.
Molecule `CN(C)CCCS(=O)(=O)c1cc(Cl)cc(NS(=O)(=O)c2cc(Br)ccc2O)c1` [Example S52, 5-Bromo-N-(3-chloro-5-((3-(dimethylamino)propyl)sulfonyl)phenyl)-2-hydroxybenzenesulfonamide] showed a pKi of 6.08.
As for `O=C(NC1COC1)c1cc(C2CC2)cc(NS(=O)(=O)c2cc(Br)ccc2O)c1F` [Example J144, 3-((5-Bromo-2-hydroxyphenyl)sulfonamido)-5-cyclopropyl-2-fluoro-N-(oxetan-3-yl)benzamide], the figure is 5.17; as for `CN(CCO)C(=O)c1cc(C2CC2)cc(NS(=O)(=O)c2cc(Br)ccc2O)c1O` [Example J82, 3-((5-Bromo-2-hydroxyphenyl)sulfonamido)-5-cyclopropyl-2-hydroxy-N-(2-hydroxyethyl)-N-methylbenzamide], 5.42.
Consider `O=C(NCCN1CCOCC1)c1cc(OC(F)(F)F)cc(NS(=O)(=O)c2cc(Br)ccc2O)c1O` [Example J164, 3-((5-Bromo-2-hydroxyphenyl)sulfonamido)-2-hydroxy-N-(2-morpholinoethyl)-(trifluoromethoxy)benzamide], for which the negative-log Ki (pKi) is 5.84. Compared with the last molecule, the pKi is 0.42 log units higher.
